Measured values from patent US9155726B2, “Method of treatment using checkpoint kinase 1 inhibitors” (ARRAY BIOPHARMA INC., priority 2009, dated 2015).
Read-outs that look alike come from different tables or passages of the source.

Tests used:
Phosphorylation of cdc2 [1] = test: Inhibition of CPT11 induced phosphorylation of cdc2 in HT-29 tumors, immunoblot (Example 6); type: in vivo, nude mice; conditions: 3 consecutive days BID versus single dose, 25 mg/kg PO, from 24 hours after CPT11 100 mg/kg
Procedure: Female nude mice were inoculated subcutaneously with 5×10^6 HT-29 tumor cells in 1×PBS (100 μL). Twenty four days later, mice were randomized into groups of 3 with an average tumor volume in each group of approximately 450 mm^3. […] Compound 2 was given as a single dose, or alternatively for 3 consecutive days on a BID schedule. All tumors from animals dosed with Compound 2 were harvested 2 hours post dose. Phosphorylation of cdc2 was assessed by immunoblot and normalized to total ERK expression. Results are expressed as POC.

[2] = Tolerability of CPT11 with Compound 2 started 12, 24 or 48 hours post CPT11 (Example 4); type: in vivo, nude mice; conditions: single agents: CPT11 100 mg/kg IP Q10Dx2; Compound 2 25 mg/kg PO BID 3 days per cycle; naive mice
[3] = tested on: subcutaneous HT-29 xenografts; test: TGI experiment, CPT11 with Compound 2 for 1 or 3 days (Example 5); type: in vivo; conditions: single agents: CPT11 100 mg/kg IP Q10Dx2; Compound 2 25 mg/kg PO BID
Procedure: (§1) Female nude mice were inoculated subcutaneously with 5×10^6 HT-29 tumor cells in 1×PBS (100 μL). Twelve days later, mice were randomized into groups of 8 with an average tumor volume in each group of approximately 215 mm^3. […] Tumor size and animal body weight were measured over the course of the study on the days indicated with data points in FIG. 6. Tumor volume was calculated using the formula: volume=(width^2×length)/2. No mortalities occurred over the course of this study.

[4] = Compound 2 exposure after single dose or 3 days dosing (Example 6); type: in vivo, nude mice; conditions: 25 mg/kg PO, from 24 hours after CPT11 100 mg/kg; t-test>0.05
[5] = tested on: subcutaneous HT-29 xenografts; test: TGI experiment, CPT11 with Compound 5 (Example 12); type: in vivo
Procedure: as §1, with “4×10^6” for “5×10^6”, “7” for “8”, “200” for “215”, “13.” for “6.”

Phosphorylation of cdc2 [6] = test: Inhibition of CPT11 induced phosphorylation of cdc2 in HT-29 tumors, immunoblot (Example 7); type: in vivo, nude mice; conditions: 5, 10 or 25 mg/kg PO BID 3 consecutive days from 24 hours after CPT11 100 mg/kg; HT-29 tumors harvested 96 hours post CPT11
Procedure: Female nude mice were inoculated subcutaneously with 5×10^6 HT-29 tumor cells in 1×PBS (100 μL). Twenty nine days later, mice were randomized into groups of 3 with an average tumor volume in each group of approximately 500 mm^3. […] Compound 5 was given as a single dose at 25 mg/kg, or alternatively 5, 10, or 25 mg/kg doses were given for 3 consecutive days on BID schedules. […] Phosphorylation of cdc2 was assessed by immunoblot and normalized to total ERK expression. Results are expressed as POC.

[7] = tested on: subcutaneous HT-29 xenografts; test: TGI/tolerability experiment, CPT11 with simultaneous or 24 hour delayed Compound 1 (Example 3); type: in vivo, nude mice; conditions: single agents: CPT11 100 mg/kg IP single dose; Compound 1 50 mg/kg PO BID 3 days
Procedure: as §1, with “6” for “8”, “250” for “215”, “5.” for “6.”, “volume=(width^2×length)/2.” for “volume=(width^2×length)/2. No mortalities occurred over the course of this study.”

[8] = tested on: subcutaneous HT-29 xenografts; conditions: mouse, in vivo, ip, 100 mg/kg
Procedure: as §1, with “Fourteen” for “Twelve”, “260” for “215”, “12.” for “6.”, “volume=(width^2×length)/2.” for “volume=(width^2×length)/2. No mortalities occurred over the course of this study.”

[9] = single agents: CPT11 100 mg/kg IP Q10Dx2, Compound 5 PO BID (dose of single-agent group not given)

## N[C@@H]1CCCN(c2c(Br)cnc3[nH]cc(NC(=O)c4cccnc4)c23)C1 [Compound 1, (R)—N-(4-(3-aminopiperidin-1-yl)-5-bromo-1H-pyrrolo[2,3-b]pyridin-3-yl)nicotinamide]
Phosphorylation of cdc2 [1]
  Inhibition of CPT11 induced phospho-cdc2 with extended dosing: Superior Inhibition

## CC(C)C(=O)Nc1c[nH]c2ncc(Br)c(N3CCC[C@@H](N)C3)c12 [Compound 2, (R)—N-(4-(3-aminopiperidin-1-yl)-5-bromo-1H-pyrrolo[2,3-b]pyridin-3-yl)isobutyramide]
[2]
  Day of Maximum % Body Weight Loss: 17 days
  Maximum % Body Weight Loss: 0.3%
[3]
  Day of Maximum % Body Weight Loss: 3 days
  Maximum % Body Weight Loss: 7.2%
[4]
  Compound 2 exposure, single dose versus administration for 3 days: not statistically different

## N[C@@H]1CCCN(c2c(Br)cnc3[nH]cc(NC(=O)C4CC4)c23)C1 [Compound 5, (R)—N-(4-(3-aminopiperidin-1-yl)-5-bromo-1H-pyrrolo[2,3-b]pyridin-3-yl)cyclopropanecarboxamide]
[5]; [9]
  Day of Maximum % Body Weight Loss: 18 days
  Maximum % Body Weight Loss: 2.5%
Phosphorylation of cdc2 [6]
  Inhibition of CPT11 induced phospho-cdc2 with extended dosing: Dose-Related Inhibition

## CCc1c2c(nc3ccc(OC(=O)N4CCC(N5CCCCC5)CC4)cc13)-c1cc3c(c(=O)n1C2)COC(=O)[C@]3(O)CC [CPT11, irinotecan]
[7]
  % Mortality: 0%
[2]
  % Mortality: 0%
  Day of Maximum % Body Weight Loss: 14 days
  Maximum % Body Weight Loss: 3.4%
[8]
  Maximum % Body Weight Loss: 0.08%
[5]; mouse, in vivo, 100 mg/kg
  Day of Maximum % Body Weight Loss: 18 days
  Maximum % Body Weight Loss: 6.3%
